{"source": "paper PMC5218480", "about": "(PLoS ONE, 2017)", "test_system": "MV-4-11 cells", "assay": "Gene expression microarray analysis (Affymetrix PrimeView) and GSEA", "format": "cell-based, human", "set-up": "RFU PODN (11730768_x_at) / Fold change /veh PODN (11730768_x_at) / RFU LINC00158 (11744669_a_at) / Fold change /veh LINC00158 (11744669_a_at) / RFU DUSP10 (11751237_a_at) / Fold change /veh DUSP10 (11751237_a_at) / RFU ID3 (11757404_x_at) / Fold change /veh ID3 (11757404_x_at) / RFU PLEKHG5 (11737974_s_at) / Fold change /veh PLEKHG5 (11737974_s_at) / RFU LRRC4B (11730491_at) / Fold change /veh LRRC4B (11730491_at) / RFU GIMAP4 (11747438_a_at) / Fold change /veh GIMAP4 (11747438_a_at) / RFU KRT8 (11758183_x_at) / Fold change /veh KRT8 (11758183_x_at) / RFU CNN1 (11734310_a_at) / Fold change /veh CNN1 (11734310_a_at) / RFU VPS37D (11726825_at) / Fold change /veh VPS37D (11726825_at) / RFU C10orf10 (11716522_x_at) / Fold change /veh C10orf10 (11716522_x_at) / RFU KIR2DL2 /// KIR2DL4 /// KIR2DL5A /// KIR2DL5B /// KIR2DS1 /// KIR2DS2 /// KIR2DS3 /// KIR2DS4 /// KIR3DL3 /// KIR3DL3 /// KIR3DS1 (11738374_at) / Fold change /veh KIR2DL2 /// KIR2DL4 /// KIR2DL5A /// KIR2DL5B /// KIR2DS1 /// KIR2DS2 /// KIR2DS3 /// KIR2DS4 /// KIR3DL3 /// KIR3DL3 /// KIR3DS1 (11738374_at) / RFU C1QL1 (11718748_at) / Fold change /veh C1QL1 (11718748_at) / RFU TMPRSS4 (11747572_a_at) / Fold change /veh TMPRSS4 (11747572_a_at) / RFU HAMP (11756126_x_at) / Fold change /veh HAMP (11756126_x_at) / RFU RNFT2 (11725882_a_at) / Fold change /veh RNFT2 (11725882_a_at) / RFU NR4A2 (11747474_a_at) / Fold change /veh NR4A2 (11747474_a_at) / RFU ABCC12 (11746883_a_at) / Fold change /veh ABCC12 (11746883_a_at) / RFU TMEM136 (11760407_x_at) / Fold change /veh TMEM136 (11760407_x_at) / RFU CLDN22 /// WWC2 (11732394_at) / Fold change /veh CLDN22 /// WWC2 (11732394_at) / RFU HLA-DPB1 (11760878_x_at) / Fold change /veh HLA-DPB1 (11760878_x_at) / RFU SPINT1 (11716480_a_at) / Fold change /veh SPINT1 (11716480_a_at) / RFU GAP43 (11754022_s_at) / Fold change /veh GAP43 (11754022_s_at) / RFU A4GNT (11735810_at) / Fold change /veh A4GNT (11735810_at) / RFU PRB3 (11715151_x_at) / Fold change /veh PRB3 (11715151_x_at) / RFU TUBB4B (11761932_at) / Fold change /veh TUBB4B (11761932_at) / RFU CAPN14 (11732068_a_at) / Fold change /veh CAPN14 (11732068_a_at) / RFU TMCC2 (11721928_a_at) / Fold change /veh TMCC2 (11721928_a_at) / RFU IRGQ (11745062_a_at) / Fold change /veh IRGQ (11745062_a_at) / RFU FAM174B (11720279_a_at) / Fold change /veh FAM174B (11720279_a_at) / RFU TMPRSS4 (11748680_a_at) / Fold change /veh TMPRSS4 (11748680_a_at) / RFU FAM212B (11763350_a_at) / Fold change /veh FAM212B (11763350_a_at) / RFU PLEKHG5 (11743358_a_at) / Fold change /veh PLEKHG5 (11743358_a_at) / RFU ZSCAN30 (11745921_a_at) / Fold change /veh ZSCAN30 (11745921_a_at) / RFU CMKLR1 (11741424_a_at) / Fold change /veh CMKLR1 (11741424_a_at) / RFU LOC101060620 /// MAPK8IP1 (11723275_at) / Fold change /veh LOC101060620 /// MAPK8IP1 (11723275_at) / RFU SPTSSB (11747773_x_at) / Fold change /veh SPTSSB (11747773_x_at) / RFU PRSS12 (11739890_at) / Fold change /veh PRSS12 (11739890_at) / RFU BIN1 (11741810_x_at) / Fold change /veh BIN1 (11741810_x_at) / RFU WNT11 (11732464_a_at) / Fold change /veh WNT11 (11732464_a_at) / RFU C10orf10 (11716521_a_at) / Fold change /veh C10orf10 (11716521_a_at) / RFU C5orf56 (11738089_at) / Fold change /veh C5orf56 (11738089_at) / RFU CYB561 (11721691_x_at) / Fold change /veh CYB561 (11721691_x_at) / RFU ANKRD19P (11752326_a_at) / Fold change /veh ANKRD19P (11752326_a_at) / RFU OR2T12 /// OR2T33 /// OR2T8 (11738714_s_at) / Fold change /veh OR2T12 /// OR2T33 /// OR2T8 (11738714_s_at) / RFU VCAN (11748164_a_at) / Fold change /veh VCAN (11748164_a_at) / RFU JSRP1 (11732532_at) / Fold change /veh JSRP1 (11732532_at) / RFU KRTAP10-11 (11738290_x_at) / Fold change /veh KRTAP10-11 (11738290_x_at) / RFU MYO3A (11730013_a_at) / Fold change /veh MYO3A (11730013_a_at) / RFU EBF3 (11725865_a_at) / Fold change /veh EBF3 (11725865_a_at) / RFU CAMK2N1 (11719241_x_at) / Fold change /veh CAMK2N1 (11719241_x_at) / RFU C5orf56 (11738088_a_at) / Fold change /veh C5orf56 (11738088_a_at) / RFU OLFML3 (11715873_a_at) / Fold change /veh OLFML3 (11715873_a_at) / RFU LOC100653217 /// NTM (11731650_a_at) / Fold change /veh LOC100653217 /// NTM (11731650_a_at) / RFU MAPK11 (11762145_a_at) / Fold change /veh MAPK11 (11762145_a_at) / RFU FIZ1 (11724087_x_at) / Fold change /veh FIZ1 (11724087_x_at) / RFU OASL (11726364_x_at) / Fold change /veh OASL (11726364_x_at) / RFU SOX15 (11748057_x_at) / Fold change /veh SOX15 (11748057_x_at) / RFU CD79A (11719716_a_at) / Fold change /veh CD79A (11719716_a_at) / RFU HIST1H1D (11736915_at) / Fold change /veh HIST1H1D (11736915_at) / RFU CASKIN2 (11723855_a_at) / Fold change /veh CASKIN2 (11723855_a_at) / RFU LOC730098 (11760151_x_at) / Fold change /veh LOC730098 (11760151_x_at) / RFU OR4N2 (11742367_at) / Fold change /veh OR4N2 (11742367_at) / RFU PRRT2 (11749266_a_at) / Fold change /veh PRRT2 (11749266_a_at) / RFU SNX32 (11753110_a_at) / Fold change /veh SNX32 (11753110_a_at) / RFU CDHR5 (11726645_a_at) / Fold change /veh CDHR5 (11726645_a_at) / RFU RCAN1 (11760418_a_at) / Fold change /veh RCAN1 (11760418_a_at) / RFU FAM167A (11723789_a_at) / Fold change /veh FAM167A (11723789_a_at) / RFU FAM26E (11764081_at) / Fold change /veh FAM26E (11764081_at) / RFU ISYNA1 (11749810_s_at) / Fold change /veh ISYNA1 (11749810_s_at) / RFU ACY1 (11761880_at) / Fold change /veh ACY1 (11761880_at) / RFU 11764098_at / Fold change /veh 11764098_at / RFU SAMD14 (11745864_x_at) / Fold change /veh SAMD14 (11745864_x_at) / RFU NPB (11741838_a_at) / Fold change /veh NPB (11741838_a_at) / RFU TMPRSS6 (11731388_a_at) / Fold change /veh TMPRSS6 (11731388_a_at) / RFU KRTAP10-2 (11738614_at) / Fold change /veh KRTAP10-2 (11738614_at) / RFU ARHGAP8 /// PRR5-ARHGAP8 (11727945_x_at) / Fold change /veh ARHGAP8 /// PRR5-ARHGAP8 (11727945_x_at) / RFU KRTAP5-7 /// NADSYN1 (11734609_at) / Fold change /veh KRTAP5-7 /// NADSYN1 (11734609_at) / RFU RASL12 (11751679_a_at) / Fold change /veh RASL12 (11751679_a_at) / RFU CDKN2B (11736163_a_at) / Fold change /veh CDKN2B (11736163_a_at) / RFU PRF1 (11729649_at) / Fold change /veh PRF1 (11729649_at) / RFU, ZNF638 /// ZNF638-IT1 / Fold change vs veh, ZNF638 /// ZNF638-IT1 / RFU, PANK3 / Fold change vs veh, PANK3 / RFU, SH3YL1 / Fold change vs veh, SH3YL1 / RFU, ZEB2 / Fold change vs veh, ZEB2 / RFU, NRIP1 / Fold change vs veh, NRIP1 / RFU, PTTG1IP / Fold change vs veh, PTTG1IP / RFU, CAPN2 / Fold change vs veh, CAPN2 / RFU, MED14 / Fold change vs veh, MED14 / RFU, SNORA58 / Fold change vs veh, SNORA58 / RFU, C1orf63 / Fold change vs veh, C1orf63 / RFU, LRRFIP1 / Fold change vs veh, LRRFIP1 / RFU, NDUFAF7 / Fold change vs veh, NDUFAF7 / RFU, SLC12A2 / Fold change vs veh, SLC12A2 / RFU, IBTK / Fold change vs veh, IBTK / RFU, ESF1 / Fold change vs veh, ESF1 / Fold change vs veh, TMEM50B / RFU, TAOK1 / Fold change vs veh, TAOK1 / RFU, ACBD3 / Fold change vs veh, ACBD3 / RFU, TMA16 / Fold change vs veh, TMA16 / RFU, RWDD3 / Fold change vs veh, RWDD3 / RFU, BCAT1 / Fold change vs veh, BCAT1 / RFU, EDEM3 / Fold change vs veh, EDEM3 / RFU, TMEM33 / Fold change vs veh, TMEM33 / RFU, WDR75 / Fold change vs veh, WDR75 / RFU, AHCTF1 / Fold change vs veh, AHCTF1 / RFU, TFRC / Fold change vs veh, TFRC / RFU, ZDHHC17 / Fold change vs veh, ZDHHC17 / RFU, NOM1 / Fold change vs veh, NOM1 / RFU, ARL8B / Fold change vs veh, ARL8B / RFU, ZBTB11 / Fold change vs veh, ZBTB11 / RFU, TAMM41 / Fold change vs veh, TAMM41 / RFU, KIAA1704 /// LOC100996395 / Fold change vs veh, KIAA1704 /// LOC100996395 / RFU, ING1 / Fold change vs veh, ING1 / RFU, TRMT61B / Fold change vs veh, TRMT61B / RFU, FUBP3 / Fold change vs veh, FUBP3 / RFU, TP53 / Fold change vs veh, TP53 / RFU, TNKS2 / Fold change vs veh, TNKS2 / RFU, ZFP14 / Fold change vs veh, ZFP14 / RFU, ACTR2 / Fold change vs veh, ACTR2 / RFU, PPP3R1 / Fold change vs veh, PPP3R1 / RFU, PIK3R1 / Fold change vs veh, PIK3R1 / RFU, HNRNPA1 / Fold change vs veh, HNRNPA1 / RFU, RNF170 / Fold change vs veh, RNF170 / RFU, ZNF28 / Fold change vs veh, ZNF28 / RFU, RNGTT / Fold change vs veh, RNGTT / RFU, OGT / Fold change vs veh, OGT / RFU, BRD1 / Fold change vs veh, BRD1 / RFU, MARS / Fold change vs veh, MARS / RFU, ZNF655 / Fold change vs veh, ZNF655 / RFU, FAHD1 / Fold change vs veh, FAHD1 / RFU, BDP1 / Fold change vs veh, BDP1 / RFU, LRRCC1 / Fold change vs veh, LRRCC1 / RFU, ARID1A / Fold change vs veh, ARID1A / RFU, ZNF146 / Fold change vs veh, ZNF146 / RFU, ZNF330 / Fold change vs veh, ZNF330 / RFU, GPN3 / Fold change vs veh, GPN3 / RFU, C9orf123 / Fold change vs veh, C9orf123 / RFU, N4BP2L2 / Fold change vs veh, N4BP2L2 / RFU, ARFIP1 / Fold change vs veh, ARFIP1 / RFU, FAM179B / Fold change vs veh, FAM179B / RFU, BCL10 / Fold change vs veh, BCL10 / RFU, UHRF1BP1L / Fold change vs veh, UHRF1BP1L / RFU, BET1 / Fold change vs veh, BET1 / RFU, CNOT2 / Fold change vs veh, CNOT2 / RFU, ZNF268 / Fold change vs veh, ZNF268 / Fold change vs veh, ZNF507 / RFU, DGCR2 / Fold change vs veh, DGCR2 / RFU, WDSUB1 / Fold change vs veh, WDSUB1 / Fold change vs veh, HSP90B1 /// MIR3652 / RFU, ADSS / Fold change vs veh, ADSS / RFU, GK / Fold change vs veh, GK / RFU, ZNF148 / Fold change vs veh, ZNF148 / RFU, TAF9 / Fold change vs veh, TAF9 / RFU, SLC1A5 / Fold change vs veh, SLC1A5 / RFU, SLMO2 / Fold change vs veh, SLMO2 / RFU, ABCC4 / Fold change vs veh, ABCC4 / RFU, LOC101060439 /// RAP1B / Fold change vs veh, LOC101060439 /// RAP1B / RFU, RFX7 / Fold change vs veh, RFX7 / RFU, GTPBP10 / Fold change vs veh, GTPBP10 / RFU, CNEP1R1 / Fold change vs veh, CNEP1R1 / RFU, BIVM-ERCC5 /// ERCC5 / Fold change vs veh, BIVM-ERCC5 /// ERCC5 / RFU, ILF3 / Fold change vs veh, ILF3 / RFU 11762660_at / Fold change /veh 11762660_at / RFU VCAN (11757783_s_at) / Fold change /veh VCAN (11757783_s_at) / RFU DDX43 (11728927_at) / Fold change /veh DDX43 (11728927_at) / RFU KRT8 (11758188_x_at) / Fold change /veh KRT8 (11758188_x_at) / RFU NKD1 (11759106_at) / Fold change /veh NKD1 (11759106_at) / RFU SRD5A1 (11742802_a_at) / Fold change /veh SRD5A1 (11742802_a_at) / RFU TPSAB1 /// TPSB2 (11721975_s_at) / Fold change /veh TPSAB1 /// TPSB2 (11721975_s_at) / RFU GSTM3 (11746129_a_at) / Fold change /veh GSTM3 (11746129_a_at) / RFU IL23R (11737362_x_at) / Fold change /veh IL23R (11737362_x_at) / RFU TMEM51 (11727254_a_at) / Fold change /veh TMEM51 (11727254_a_at) / RFU PIWIL2 (11732686_x_at) / Fold change /veh PIWIL2 (11732686_x_at) / RFU ORM1 (11744905_x_at) / Fold change /veh ORM1 (11744905_x_at) / RFU CCDC152 (11743942_at) / Fold change /veh CCDC152 (11743942_at) / RFU ECM1 (11717891_a_at) / Fold change /veh ECM1 (11717891_a_at) / RFU IL23R (11748794_a_at) / Fold change /veh IL23R (11748794_a_at) / RFU TNFAIP8L3 (11732012_x_at) / Fold change /veh TNFAIP8L3 (11732012_x_at) / RFU MBOAT4 (11741988_at) / Fold change /veh MBOAT4 (11741988_at) / RFU 11764193_at / Fold change /veh 11764193_at / RFU TMEM53 (11763286_at) / Fold change /veh TMEM53 (11763286_at) / RFU MAGEB2 (11727129_at) / Fold change /veh MAGEB2 (11727129_at) / RFU TMEM200A (11744735_a_at) / Fold change /veh TMEM200A (11744735_a_at) / RFU CCDC152 (11751479_a_at) / Fold change /veh CCDC152 (11751479_a_at) / RFU FAM211A (11726209_a_at) / Fold change /veh FAM211A (11726209_a_at) / RFU RGS16 (11746705_a_at) / Fold change /veh RGS16 (11746705_a_at) / RFU VCAN (11755009_s_at) / Fold change /veh VCAN (11755009_s_at) / RFU RHOB (11743442_s_at) / Fold change /veh RHOB (11743442_s_at) / RFU RGS16 (11720943_a_at) / Fold change /veh RGS16 (11720943_a_at) / RFU RGS16 (11720944_at) / Fold change /veh RGS16 (11720944_at) / RFU, VPS4B / Fold change vs veh, VPS4B / RFU, CREB1 / Fold change vs veh, CREB1 / RFU, DNAJC13 / Fold change vs veh, DNAJC13 / RFU, GNAQ / Fold change vs veh, GNAQ / RFU, CDK5R1 / Fold change vs veh, CDK5R1 / RFU, ZRANB3 / Fold change vs veh, ZRANB3 / RFU, CUL4A / Fold change vs veh, CUL4A / RFU, CCNY / Fold change vs veh, CCNY / RFU, UFL1 / Fold change vs veh, UFL1 / RFU, COG3 / Fold change vs veh, COG3 / RFU, DIAPH2 / Fold change vs veh, DIAPH2 / RFU, SKA2 / Fold change vs veh, SKA2 / RFU, AFF3 / Fold change vs veh, AFF3 / RFU, LMF1 / Fold change vs veh, LMF1 / RFU, IPO11 / Fold change vs veh, IPO11 / RFU, DFFB / Fold change vs veh, DFFB / RFU, FOXP1 / Fold change vs veh, FOXP1 / RFU, CARD8 / Fold change vs veh, CARD8 / RFU, STRN3 / Fold change vs veh, STRN3 / RFU, ADK / Fold change vs veh, ADK / RFU, RASSF2 / Fold change vs veh, RASSF2 / RFU, WIPF1 / Fold change vs veh, WIPF1 / RFU, LARP1B / Fold change vs veh, LARP1B / RFU, RASA1 / Fold change vs veh, RASA1 / RFU, RB1 / Fold change vs veh, RB1 / RFU, PPFIA1 / Fold change vs veh, PPFIA1 / RFU, MAT2A / Fold change vs veh, MAT2A / RFU, CCT5 / Fold change vs veh, CCT5 / RFU, WDR92 / Fold change vs veh, WDR92 / RFU, CUX1 / Fold change vs veh, CUX1 / RFU, TTC7A / Fold change vs veh, TTC7A / RFU, TMEM135 / Fold change vs veh, TMEM135 / RFU, DEPTOR / Fold change vs veh, DEPTOR / RFU, CPM / Fold change vs veh, CPM / RFU, DNAJB6 / Fold change vs veh, DNAJB6 / RFU, CACNA2D3 / Fold change vs veh, CACNA2D3 / RFU, DTX4 / Fold change vs veh, DTX4 / RFU, TFCP2 / Fold change vs veh, TFCP2 / RFU, GMCL1 /// GMCL1P1 / Fold change vs veh, GMCL1 /// GMCL1P1 / RFU, AEBP2 / Fold change vs veh, AEBP2 / RFU, SNHG1 /// SNORD22 /// SNORD25 /// SNORD26 /// SNORD27 /// SNORD28 /// SNORD29 /// SNORD31 / Fold change vs veh, SNHG1 /// SNORD22 /// SNORD25 /// SNORD26 /// SNORD27 /// SNORD28 /// SNORD29 /// SNORD31 / Fold change (Aza/veh), C12orf56 (ProbeSet 11735607_a_at) / Fold change (ACY-1035/veh), C12orf56 (ProbeSet 11735607_a_at) / Fold change (Aza/veh), FGFR1OP (ProbeSet 11751329_s_at) / Fold change (ACY-1035/veh), FGFR1OP (ProbeSet 11751329_s_at) / Fold change (Aza/veh), VPS36 (ProbeSet 11739960_a_at) / Fold change (ACY-1035/veh), VPS36 (ProbeSet 11739960_a_at) / RFU SYPL1 (11715823_x_at) / Fold change /veh SYPL1 (11715823_x_at) / RFU IGFBP7 (11715501_s_at) / Fold change /veh IGFBP7 (11715501_s_at) / RFU REEP3 (11722064_at) / Fold change /veh REEP3 (11722064_at) / RFU IGLL1 (11728026_x_at) / Fold change /veh IGLL1 (11728026_x_at): dose or concentration left out as unconfirmed", "conditions": "ProbeSet 11755159_a_at; LIST D"}
{"smiles": "Nc1ncn([C@@H]2O[C@H](CO)[C@@H](O)[C@H]2O)c(=O)n1", "note": "[azacitidine]", "values": [{"measurement": "RFU, COG3", "result": 74.05, "unit": "RFU"}]}
